# Like-named read-outs stand apart in the source and are kept apart here.
# What was measured:
# Cultured rat SCG neurons = details: for effect on proNGF induced neuronal apoptosis (FIG. 1): 10 μM compound, 5 ng/ml proNGF, rat SCG neurons 7 DIV
# Protocol: (§1) (A) Neuronal apoptosis was assessed morphologically by DAPI and TuJ1 double staining and (B) quantitated as percentage of SCG neuron apoptosis. […] Error bars represent S.E.M.
# as §1, with “A recent collaborative study assessed the expression and biological actions of proNGF following seizure induced injury to central neurons. […] (A)” for “(A)”
# [1] = cited from earlier work
# dopaminergic neurons = details: one report; cited from earlier work
# [2] = human, in vivo; cited from earlier work
# [3] = mouse, in vivo; cited from earlier work
# [4] = rat, in vivo, sc, 100 mg/kg
# [5] = in vivo; cited from earlier work
# [6] = human, in vivo, cited from earlier work
# [7] = monkey, in vivo; cited from earlier work
smiles,measurement,setting,value
CC[C@H](C)C(=O)O[C@H]1C[C@@H](C)C=C2C=C[C@H](C)[C@H](CC[C@@H]3C[C@@H](O)CC(=O)O3)[C@H]21 [Lovastatin],"inhibition of apoptosis, dose dependence",Cultured rat SCG neurons,dose dependent inhibition of apoptosis
same,toxicity in SCG neuron assay,Cultured rat SCG neurons,without toxicity
same,toxicity profile in human,[1]; in vivo,excellent toxicity profiles in human
N[C@@H](Cc1ccc(O)c(O)c1)C(=O)O [Levodopa],L-dopa concentrations required for toxicity to dopaminergic neurons,dopaminergic neurons,100 to 500 µM
same,effect on proNGF induced neuronal apoptosis (FIG. 1),Cultured rat SCG neurons,blockade of proNGF induced neuronal apoptosis
same,"inhibition of apoptosis, dose dependence",Cultured rat SCG neurons; proNGF-induced SCG neuronal cell death,dose dependent inhibition of apoptosis
same,CSF level of major metabolite homovanillic acid,[2],0.8 to 1 µM
same,toxicity profile in human,[1]; human,excellent toxicity profiles in human
O=C([O-])CC(O)(CC(=O)[O-])C(=O)[O-].[Li+].[Li+].[Li+] [Lithium Citrate],"inhibition of apoptosis, dose dependence",Cultured rat SCG neurons,dose dependent inhibition of apoptosis
same,effect on proNGF induced neuronal apoptosis (FIG. 1),Cultured rat SCG neurons,blockade of proNGF induced neuronal apoptosis
same,toxicity profile in human,[1]; in vivo,excellent toxicity profiles in human
O=C([O-])[O-].[Li+].[Li+] [Lithium carbonate],clinical toxicity,[3],no clinical toxicity
same,peak serum concentration,[4],3 mM
same,trough serum concentration,[4],300 µM
same,brain concentration relative to serum concentration,[5],approximately half
same,serum concentration,[6]; po,0.6 to 0.8 mmol
same,major toxicities,[6],reversible renal impairment and anemia
same,concentration at which efficacy is demonstrated,Cultured rat SCG neurons,10 µM
same,brain concentration relative to serum concentration,[7],approximately half
